From PubChem BioAssay AID610 (The Scripps Research Institute Molecular Screening Center, 2007)
The source made the active and inactive calls. No rule for the calls is given here.

Biological target: Nuclear receptor ROR-alpha (Homo sapiens) (UniProt P35398)
Experiment: RORA-driven reporter inhibition potency – cell-based, dose response (AID 610)

Nuclear receptor ROR-alpha (Homo sapiens), sequence (P35398 whole entry, looked up): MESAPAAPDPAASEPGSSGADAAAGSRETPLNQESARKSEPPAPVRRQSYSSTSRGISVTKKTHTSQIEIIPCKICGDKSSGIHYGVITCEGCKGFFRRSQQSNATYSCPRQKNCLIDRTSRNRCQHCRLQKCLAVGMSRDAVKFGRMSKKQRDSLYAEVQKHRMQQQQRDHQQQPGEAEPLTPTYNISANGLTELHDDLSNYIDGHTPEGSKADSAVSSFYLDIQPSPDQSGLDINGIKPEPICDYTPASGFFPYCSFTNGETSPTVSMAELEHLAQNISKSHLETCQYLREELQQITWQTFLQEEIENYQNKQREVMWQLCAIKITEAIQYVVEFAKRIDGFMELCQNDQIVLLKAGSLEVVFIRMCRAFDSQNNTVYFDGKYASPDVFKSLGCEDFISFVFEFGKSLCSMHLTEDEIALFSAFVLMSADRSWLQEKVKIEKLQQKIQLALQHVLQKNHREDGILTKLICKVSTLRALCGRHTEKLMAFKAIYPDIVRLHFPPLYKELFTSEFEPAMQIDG

For O=C(/C=C\Nc1ccccn1)c1ccc(Cl)cc1, the IC50 was 8350 nM.

Work on COc1cc(/C=N/O)ccc1OCc1ccc(C(=O)O)cc1 yielded an IC50 of 670 nM.

Work on COc1cccc2sc(Nc3nc(-c4ccccn4)cs3)nc12 yielded an IC50 of 4560 nM.

CC(=O)CC1OC(=O)C(Br)=C1NCc1ccccc1 (centres undefined) was tested, and the IC50 was “inactive”.

O=S(=O)(c1ccc2c(c1)C(=NO)c1cc(S(=O)(=O)N3CCCCC3)ccc1-2)N1CCCCC1 showed an IC50 of 2480 nM.

With O=C(O)CCCCCN1C(=O)CSC1=S the IC50 was > 99000 nM (inactive).

COC(=O)C1=C(CN2CCCc3ccccc32)NC(=O)NC1c1ccc(F)cc1 (centres undefined) was tested, and the IC50 was 6230 nM.

Cc1ccc(C(=O)/C=C/Nc2ccccn2)cc1 gave an IC50 of 2090 nM.

Work on O=C(/C=C\Nc1ccc2c(c1)OCO2)c1ccccn1 yielded an IC50 of 1520 nM.
